In publication PMC7353089, “The Hepatotoxicity of Alantolactone and Germacrone: Their Influence on Cholesterol and Lipid Metabolism in Differentiated HepaRG Cells” (Nutrients, 2020):
“Also recorded” adds a separate entry of the source. Where two headings read alike, the source gives them in different places.

Columns and labels:
CYP3A4 mRNA = assay: RT-qPCR mRNA expression in dHepaRG cells; conditions: single exposure, also at other than toxic concentrations
Procedure: The mRNA and protein expression changes were measured after a single administration of ALA and GER. Three concentrations were selected for each compound (non-toxic, non-toxic/slightly toxic and toxic). The cholesterol level of the dHepaRG cells was measured after a multiple exposure of the highest non-toxic concentrations of tested compounds. ATL (30 µM) and GER (100 µM) were administered four times every 24 h. The expression changes of genes and proteins related to cholesterol metabolism were measured in both single and multiple exposure experiments.
All treatments were performed in triplicates and every experiment was performed three times. The cells were washed twice with ice cold phosphate-buffered saline (PBS), scrapped and stored at −80 °C until use. […] The measurement of absorbance at 260 and 280 nm using the NanoDrop ND-1000 UV–VIS Spectrophotometer (Thermo Fisher Scientific, Pardubice, Czech Republic) was used to determine RNA yields and purity. […] Fluorescence data were recorded at the end of each amplification step. Relative expression levels of the target genes were calculated as fold changes in triplicates for each group using the 2^−ΔΔCt method by normalization to the geometric mean of the Ct values of Sdha and Ywhaz, which were used as reference genes.

SREBP-1c mRNA = assay: RT-qPCR mRNA expression in dHepaRG cells; type: cell-based, human
Procedure: (§2) All treatments were performed in triplicates and every experiment was performed three times. The cells were washed twice with ice cold phosphate-buffered saline (PBS), scrapped and stored at −80 °C until use. Total RNA from cells was isolated using TriReagent according to the manufacturer’s instructions (Biotech, Prague, Czech Republic). The purified RNA was dissolved in 40 µL of diethyl pyrocarbonate (DEPC)-treated water (0.01% DEPC in HPLC water, autoclaved) and stored at −80 °C. The measurement of absorbance at 260 and 280 nm using the NanoDrop ND-1000 UV–VIS Spectrophotometer (Thermo Fisher Scientific, Pardubice, Czech Republic) was used to determine RNA yields and purity. Subsequently, the RNA (4 µg) was treated with 2 U of DNase I (New England Biolabs, Ipswich, MA, USA) in a final volume of 30 µL for 25 min at 37 °C, 1.5 µL of 0.1 M ethylenediaminetetraacetic acid was added and the DNAse was inactivated by heat (5 min at 75 °C). […] Fluorescence data were recorded at the end of each amplification step. Relative expression levels of the target genes were calculated as fold changes in triplicates for each group using the 2^−ΔΔCt method [28] by normalization to the geometric mean of the Ct values of Sdha and Ywhaz, which were used as reference genes.

MCF-7 = conditions: read-out: Previously Reported IC50 Values (24 h), cited from earlier work
GPAM mRNA = assay: RT-qPCR mRNA expression in dHepaRG cells; type: cell-based, human; conditions: single exposure, 6, 12 and 24 h
Procedure: as §2

PLIN2 mRNA = assay: RT-qPCR mRNA expression in dHepaRG cells; type: cell-based, human; conditions: single exposure, the highest concentrations
Procedure: (§3) Three concentrations were selected for each compound (non-toxic, non-toxic/slightly toxic and toxic). The cholesterol level of the dHepaRG cells was measured after a multiple exposure of the highest non-toxic concentrations of tested compounds. […] The expression changes of genes and proteins related to cholesterol metabolism were measured in both single and multiple exposure experiments.
(§4) All treatments were performed in triplicates and every experiment was performed three times. The cells were washed twice with ice cold phosphate-buffered saline (PBS), scrapped and stored at −80 °C until use. Total RNA from cells was isolated using TriReagent according to the manufacturer’s instructions (Biotech, Prague, Czech Republic). The purified RNA was dissolved in 40 µL of diethyl pyrocarbonate (DEPC)-treated water (0.01% DEPC in HPLC water, autoclaved) and stored at −80 °C. The measurement of absorbance at 260 and 280 nm using the NanoDrop ND-1000 UV–VIS Spectrophotometer (Thermo Fisher Scientific, Pardubice, Czech Republic) was used to determine RNA yields and purity. […] Fluorescence data were recorded at the end of each amplification step. Relative expression levels of the target genes were calculated as fold changes in triplicates for each group using the 2^−ΔΔCt method [28] by normalization to the geometric mean of the Ct values of Sdha and Ywhaz, which were used as reference genes.

PPARα mRNA = assay: RT-qPCR mRNA expression in dHepaRG cells; type: cell-based, human
Procedure: as §2

RIP1 = assay: Western blot protein level in dHepaRG cells; type: cell-based, human
Procedure: (§1) All the treatments were performed in triplicates. Protein concentration was measured using the bicinchoninic acid (BCA) protein assay (Sigma Aldrich, Prague, Czech Republic) according to the manufacturer’s instructions. The proteins were loaded onto a 10% sodium dodecyl sulfate (SDS; w/v)–polyacrylamide gel (with 4% stacking gel) and separated by SDS-PAGE electrophoresis. The proteins were transferred onto a nitrocellulose membrane using wet blot (100 V, 90 min). The membrane blocking was performed in a 5% non-fat dry milk/TRIS-buffered saline-Tween-20 (TBS-T) solution at room temperature for 2 h. Incubation with primary antibodies was accomplished overnight at 10 °C. β-actin was used as housekeeping protein (the list of primary antibodies in Table S2). Afterwards, the membrane was washed with 0.05% TBS-T solution for 6 × 5 min, incubated with respective secondary antibodies conjugated with horseradish peroxidase (bovine anti-rabbit (sc2370, Santa Cruz Biotechnology, Santa Cruz, CA, USA) at room temperature for 1.5 h, and rinsed with TBS-T solution for 6 × 5 min. Visualization of protein bands was carried out using a chemiluminescence kit (GE Healthcare, Buckinghamshire, UK).

STAT3 = assay: Western blot protein level in dHepaRG cells; type: cell-based, human; conditions: highest tested concentration (equal to IC50)
Procedure: as §1

ICAM-1 = assay: Western blot protein level in dHepaRG cells; type: cell-based, human
Procedure: as §1

HMGCR = assay: Western blot protein level in dHepaRG cells; type: cell-based, human
Procedure: as §1

SREBP-2 (F) = assay: Western blot protein level in dHepaRG cells; type: cell-based, human; conditions: single exposure
Procedure: as §1

NF-κB = assay: Western blot protein level in dHepaRG cells; type: cell-based, human
Procedure: as §1

p-STAT3(Y705) = assay: Western blot protein level in dHepaRG cells; type: cell-based, human; conditions: for phosphorylated p-STAT3(Y705) protein amount: 12-h exposure
Procedure: as §1

ICAM-1 mRNA = assay: RT-qPCR mRNA expression in dHepaRG cells; type: cell-based, human; conditions: the highest concentration
Procedure: (§5) Three concentrations were selected for each compound (non-toxic, non-toxic/slightly toxic and toxic). […] The expression changes of genes and proteins related to cholesterol metabolism were measured in both single and multiple exposure experiments.
as §4

PLIN4 mRNA = assay: RT-qPCR mRNA expression in dHepaRG cells; type: cell-based, human; conditions: single exposure, 6, 12 and 24 h
Procedure: as §3, §4

G6PC mRNA = assay: RT-qPCR mRNA expression in dHepaRG cells; type: cell-based, human; conditions: single exposure, also at other than toxic concentrations
Procedure: as §5, §4

MDA-MB-231 = conditions: MDA-MB-231, 24 h; read-out: Previously Reported IC50 Values (24 h); cited from earlier work
[1] = single exposure, 6, 12 and 24 h
[2] = single exposure, toxic concentration after 24 h
[3] = the higher concentrations after 12 and 24-h exposure

C=C1C(=O)O[C@@H]2C[C@@]3(C)CCC[C@H](C)C3=C[C@H]12 [ATL, alantolactone]
CYP3A4 mRNA expression (CYP3A4 mRNA): induced | SREBP-1c mRNA (SREBP-1c mRNA; [1]): dysregulated | IC50 (MCF-7; MCF-7, 24 h): 36 µM | GPAM mRNA level (GPAM mRNA): significantly decreased | PLIN2 mRNA (PLIN2 mRNA): induced | PPARα mRNA expression (PPARα mRNA; [2]): inhibited | RIP1 protein expression (RIP1; 12-h exposure): decreased level | RIP1 protein expression (RIP1; 24-h exposure, highest concentration): decreased | total STAT3 protein level (STAT3): decrease | ICAM-1 protein amount (ICAM-1; all concentrations after 12-h exposure): significantly decreased | HMGCR protein amount (HMGCR; single exposure, after 12 and 24 h): decrease | HMGCR protein level (HMGCR; single exposure, the higher concentrations after 12 and 24-h exposure): decrease | functional SREBP-2 (F) protein level (SREBP-2 (F); the highest concentration): significantly decreased | NF-κB protein level (NF-κB; 24-h exposure, the highest concentration): significant decrease | phosphorylated p-STAT3(Y705) protein amount (p-STAT3(Y705); all concentrations tested): decreased; also recorded: inhibition | ICAM-1 mRNA amount (ICAM-1 mRNA; 12-h and 24-h exposure): induced | PLIN4 mRNA level (PLIN4 mRNA): decreased | G6PC mRNA expression (G6PC mRNA): dysregulated | IC50 (MDA-MB-231): > 15 µM

CC(C)=C1C/C=C(\C)CC/C=C(\C)CC1=O [GER, germacrone]
CYP3A4 mRNA expression (CYP3A4 mRNA): induced | SREBP-1c mRNA (SREBP-1c mRNA; [2]): inhibited | IC50 (MCF-7; MCF7, 24 h, ref 11): 195 µM | IC50 (MCF-7; MCF7, 24 h, ref 37): > 200 µM | GPAM mRNA level (GPAM mRNA): significantly decreased | PLIN2 mRNA (PLIN2 mRNA): induced | PPARα mRNA expression (PPARα mRNA; [1]): no effect | RIP1 protein expression (RIP1; 12-h exposure): decreased level | total STAT3 protein level (STAT3): decrease | ICAM-1 protein amount (ICAM-1; [3]): significantly decreased | HMGCR protein level (HMGCR; multiple exposure: four applications every 24 h, analyzed 12 h after the last, 30 μM ATL, 100 μM GER, 20 μM LOV): slight decrease | HMGCR protein amount (HMGCR; single exposure, only after 12-h exposure): decrease | HMGCR protein level (HMGCR; single exposure, the highest concentration after 12-h exposure): decrease | functional SREBP-2 (F) protein level (SREBP-2 (F); 12-h exposure): increase | functional SREBP-2 (F) protein level (SREBP-2 (F); 24-h exposure): no change in protein level | NF-κB protein level (NF-κB; 12-h exposure): decreased level | phosphorylated p-STAT3(Y705) protein amount (p-STAT3(Y705); both higher concentrations): decreased | p-STAT3 (Y705) phosphorylation (p-STAT3(Y705); [3]): inhibition | ICAM-1 mRNA amount (ICAM-1 mRNA; 6-h and 12-h exposure): induced | PLIN4 mRNA level (PLIN4 mRNA): no significant change | G6PC mRNA expression (G6PC mRNA): dysregulated | IC50 (MDA-MB-231): 244 µM
